Tests used:
[1] = target: T1, human Melanin concentrating hormone receptor 1 (MCH1r) (Homo sapiens, UniProt Q99705); experiment: MCH1 receptor radioligand binding (125I-MCH, CHO-K1 cell membranes); conditions: CHO-K1 membranes expressing human MCH1r, 30° C., 60 minutes, read-out: IC50 in human MCHr binding assay
T1 construct: expressed in transfected cells; host or cells: CHO-K1
Experimental: MCH1 Receptor Radioligand Binding.
Assays were performed on membranes prepared from CHO—K1 cells expressing the human Melanin concentrating hormone receptor 1 (MCH1r). Assays were performed in a 96-well plate format in a final reaction volume of 200 μl per well. Each well contained 6 μg of membrane proteins diluted in binding buffer (50 mM Tris, 3 mM MgCl2, 0.05% bovine serum albumin and the radioligand ^125I-MCH (IM344 Amersham) was added to give 10 000 cpm (counts per minute) per well. Each well contained 2 μl of the appropriate concentration of competitive antagonist prepared in DMSO and left to stand at 30° C. for 60 minutes. Non-specific binding was determined as that remaining following incubation with 1 μM MCH (Melanin concentrating hormone, H-1482 Bachem). The reaction was terminated by transfer of the reaction to GF/A filters using a Micro96 Harvester (Skatron Instruments, Norway). Filters were washed with assay buffer. Radioligand retained on the filters was quantified using al450 Microbeta TRILUX (Wallac, Finland).
Non-specific binding was subtracted from all values determined. Maximum binding was that determined in the absence of any competitor following subtraction of the value determined for non-specific binding. Binding of compounds at various concentrations was plotted according to the equation
and IC50 estimated where A is the bottom plateau of the curve i.e. the final minimum y value B is the top of the plateau of the curve i.e. the final maximum y value C is the x value at the middle of the curve. This represents the log EC50 value when A+B=100 D is the slope factor. x is the original known x values. y is the original known y values.

recombinant hMCHr = target: T2, recombinant hMCHr (Homo sapiens, UniProt Q99705); experiment: MCH1 functional assay ([35S]GTPγS binding, membranes with recombinant hMCHr); type: biochemical; conditions: ED80 concentration of MCH, 45 min at 30° C., read-out: IC50 of antagonists in MCH1 functional assay
T2 construct: purchased Euroscreen
Experimental: Membranes expressing recombinant hMCHr (5.45 pmol/mg protein; Euroscreen) were prepared in assay buffer (50 mM HEPES, 100 mM NaCl, 5 mM MgCl2, 1 mM EDTA, 200 μM DTT, 20 μM GDP (Sigma) containing 0.1 μg/ml BSA, pH7.4) before assay. The assays were performed using membranes at 6 μg/well in an assay volume of 200 μl and the appropriate concentrations of compounds prepared in DMSO. The reaction was started by addition of 0.056 nM [^35S]GTPγS (Specific activity >1000 Ci/mmol; Amersham) and an ED80 concentration of MCH (determined for each membrane and each MCH batch). Non-specific binding was determined using 20 μM non-radiolabelled GTPγS. Plates were incubated for 45 min at 30° C. Free and bound GTPγS were separated by filtration binding using GF/B filter mats presoaked in wash buffer (50 mM Tris, 5 mM MgCl2, 50 mM NaCl, pH 7.4) using a Micro96 cell harvester (Skatron Instruments) and the filters then dried at 50° C. before counting using al450 Microbeta TRILUX (Wallac).
Data are means ±SD for experiments performed in triplicate. IC50 values of antagonists were determined using non-linear regression analysis of concentration response curves using Activity Base.

Male Wistar-Hanover rats = experiment: Pharmacodynamic effect in rat (food intake and body weight after fasting); type: in vivo; conditions: 16.7 μmol/kg i.p. amorphous nanoparticle formulation, time interval 0-4 h
Experimental: Pharmacodynamic Effect in Rat
Male Wistar-Hanover rats (Charles River, 300-350 grams) were acclimated to individually housing in conventional cages (Makrolon III) with 12:12 hour light-dark photoperiod (lights on at 06.00) in a temperature (20-22° C.) and humidity (40-60%) controlled room. R-3 lab chow (Lactanin, Vadstena, Sweden) and tap water from bottles were allowed ad libidum. At 16.00 on the day before experiments, animals were weighed & food (but not water) was removed. At 08.00 on experiment day, animals were weighed & compound (i.p. amorphous nanoparticle formulation, 5 ml/kg) or vehicle (3-10% DMA depending on compound formulation) administered. Animals were returned to their home cages & given access to a weighed amount of food. This food was then re-weighed 1, 2, 4, 6 & 24 hours later, and food consumption calculated by the difference from initial food weight.
Animals were further weighed at the 24-hr timepoint, and change in body weight over the treatment period was calculated.

T1 sequence (Q99705 whole entry): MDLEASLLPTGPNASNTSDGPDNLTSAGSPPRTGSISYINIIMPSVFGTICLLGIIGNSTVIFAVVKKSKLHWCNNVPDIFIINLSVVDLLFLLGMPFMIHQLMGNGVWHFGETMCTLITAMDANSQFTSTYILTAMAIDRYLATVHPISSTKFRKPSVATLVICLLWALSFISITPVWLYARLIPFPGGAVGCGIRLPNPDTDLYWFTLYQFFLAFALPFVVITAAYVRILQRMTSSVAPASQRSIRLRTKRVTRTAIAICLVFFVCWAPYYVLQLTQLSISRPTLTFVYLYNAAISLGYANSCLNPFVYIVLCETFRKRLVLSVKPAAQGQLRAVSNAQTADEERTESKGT
T2 sequence (Q99705 whole entry): as above

| SMILES | IC50 [1] | IC50 (recombinant hMCHr) | reduced food intake (Male Wistar-Hanover rats) |
| --- | --- | --- | --- |
| O=C(COc1cccc(Cl)c1)NC1CCN(Cc2ccc(-c3ccc(Cl)cc3)o2)CC1 [Example 8, 2-(3-chlorophenoxy)-N-(1-{[5-(4-chlorophenyl)-2-furyl]methyl}piperidin-4-yl)acetamide] | 105 nM | 111 nM | – |
| O=C(COc1cccc(Cl)c1)NC1CN(Cc2ccn(-c3ccc(C(F)(F)F)cc3)c2)C1 [Example 41, 2-(3-chlorophenoxy)-N-[1-({1-[4-(trifluoromethyl)phenyl]-1H-pyrrol-3-yl}methyl)azetidin-3-yl]acetamide] | 39 nM | – | – |
| O=C(CCc1cccc(Cl)c1)NC1CCN(Cc2ccn(-c3ccc(C(F)(F)F)cc3)c2)CC1 [Example 29, 3-(3-chlorophenyl)-N-[1-({1-[4-(trifluoromethyl)phenyl]-1H-pyrrol-3-yl}methyl)piperidin-4-yl]propanamide] | 66 nM | 66 nM | – |
| N#Cc1ccccc1OCC(=O)NC1CCN(Cc2ccn(-c3ccc(C(F)(F)F)cc3)c2)CC1 [Example 34, 2-(2-cyanophenoxy)-N-[1-({1-[4-(trifluoromethyl)phenyl]-1H-pyrrol-3-yl}methyl)piperidin-4-yl]acetamide] | – | – | 20% |
| COc1ccc(-n2ccc(CN3CCC(NC(=O)COc4cccc(Cl)c4)CC3)c2)cc1 [Example 3, 2-(3-chlorophenoxy)-N-({[1-(4-methoxyphenyl)-1H-pyrrol-3-yl]methyl}piperidin-4-yl)acetamide] | 167 nM | 45 nM | – |
| O=C(COc1ccc(F)c(F)c1)NC1CCN(Cc2ccn(-c3ccc(C(F)(F)F)cc3)c2)C1 (stereo not drawn) [Example 44, 2-(3,4-difluorophenoxy)-N-[1-({1-[4-(trifluoromethyl)phenyl]-1H-pyrrol-3-yl}methyl)pyrrolidin-3-yl]acetamide] | 27 nM | – | – |

Source: US20080300232A1, “N-Piperidine Derivatives as Ccr3 Modulators” (ASTRAZENECA AB, priority 2004, published 2008)
